Measurements as given in patent US20230054976A1, “METHODS FOR INHIBITION OF ALPHA-SYNUCLEIN mRNA USING SMALL MOLECULES” (The Scripps Research Institute, priority 2019, published 2023).
“Also recorded” adds a separate entry of the source.

How the values were obtained:
[1] = test system: RNA-8 to 11 (mutated closing base pairs); assay: Competitive binding assay (2-AP), RNA-8 to 11
Experimental: (§1) EC50 was calculated from Eq. (1).

[2] = test system: RNA-12 (fully base paired RNA); assay: Competitive binding assay (2-AP), RNA-12
Experimental: I and I0 are the observed fluorescence intensity in the presence and absence of 2-AP RNA. Δε is the difference between the fluorescence intensity in the absence and presence of infinite 2-AP RNA. […] EC50 was calculated from Eq. (1). […] The change of fluorescence intensity was fit to Eq. (2):
θ is the percentage of 2-AP RNA bound. [RNA] is the concentration of 2-AP RNA. EC50 is the EC50 of Synucleozid determined in the assay above. [Synucleozid] is the concentration of Synucleozid. Cc is the concentration of competitive RNA. Kd is competitive dissociation constant and A is a constant.

[3] = test system: 5′ UTR of SNCA mRNA; assay: In vitro translation assay (rabbit reticulocyte lysate), SNCA-5′-UTR-Luc mRNA; format: biochemical, human
Experimental: Luciferase assay. The effect of Synucleozid treatment on translation from various IRE containing transcripts was determined using luciferase reporter assay. SH-SY5Y cells stably expressing 5' UTR were treated with Synucleozid for 48 h, washed with PBS and lysed with Passive Lysis Buffer for 15 min at room temperature. Luciferase reporter activity in each lysate was monitored using the dual luciferase reporter assay system kit (Promega. Madison, Wis., USA) according to the manufacturer's instructions. Luminescence from firefly luciferase reaction was measured using a microplate luminometer (Wallac 1420, Perkin Elmer) at 485 nm excitation and 535 nm emission wavelengths. Firefly luciferase reaction was then quenched by adding Stop & Glo reagent, and the internal fluorescence from GFP measured at the same setting was used to normalize luciferase expression. Luciferase reporter activity was expressed as percent change compared to the respective vehicle-treated control cells. In vitro translation assay. The mRNA template for in vitro translational assays was transcribed from the pIRES-Luc-EGFP-puro and pCDH-α-syn-5'-UTR-Luc-EGFP-puro plasmids by using an in vitro transcription system (RiboMax, Promega) with forward primer: [NT] and reverse primer: [NT]. […] Translation proceeded at 30° C. for 90 min, and then luminescence was measured with a Biomek FLx800 plate reader (1.0 s integration time).

[4] = test system: 32P-labeled SNCA IRE hairpin RNA; assay: RNase H-mediated ASO-Bind-Map; format: binding, human
Experimental: RNase H-mediated ASO-Bind-Map. SNCA IRE hairpin RNA was 5′-end labeled with [γ-^32P]ATP and T4 kinase as previously described^5. Approximately, 5 pmoles of ^32P labeled IRE RNA per reaction was folded in 1× RNase H buffer (New England Biolabs) by heating to 65° C. for 5 min and slowly cooling to room temperature. Serially diluted concentrations of Synucleozid were added to the RNA solutions and incubated at room temperature for 30 min. One of ASOs was then added to a final concentration of 500 nM, followed by incubation at room temperature for 30 min. Next, 0.05 U/μL RNase H (New England Biolabs) was added into each RNA-ligand mixture, and the samples were incubated for 20 min. Reactions were quenched by incubating at 65° C. for 20 min. T
Two ladders were generated to identify the positions of RNase H cleavage. Each guanosine (G) residue was identified by using RNase T1 under denaturing conditions as described above. Likewise, a hydrolysis ladder was generated as described above. Reactions were stopped by addition of an equal volume of 2× Loading Buffer. Fragments were separated on a denaturing 15% polyacrylamide gel and imaged using a BioRad PMI phosphorimager. Images were quantified with BioRad's QuantityOne software.

[5] = test system: SNCA mRNA; assay: RT-qPCR of SNCA mRNA levels in SH-SY5Y cells; format: cell-based, human
[6] = test system: SNCA mRNA; assay: ASO-Bind-Map in cells (gapmer ASO, RT-qPCR); format: cell-based, human; details: SH-SY5Y cells, gapmer 200 nM
Experimental: Mapping Synucleozid's binding site in cells with ASO-Bind-Map. SH-SY5Y cells were treated with vehicle (DMSO) or Synucleozid at 60% confluency overnight and were then transfected with a gapmer ASO (200 nM) with Lipofectamine RNAiMAX (Invitrogen) according to the manufacturer's instructions. Mock samples were generated by treating cells with transfection reagent lacking oligonucleotide. RNA extraction, cDNA synthesis and RT-qPCR were performed as described above after 48 h. Primers for SNCA mRNA in this experiment cover sequences upstream and downstream of the IRE; forward primer: [NT]; reverse primer [NT].

[7] = test system: APP 5′ UTR; assay: Luciferase reporter assay, APP 5′ UTR, SH-SY5Y cells; format: cell-based, human
[8] = test system: SNCA IRE dually labeled with Cy3 and Cy5; assay: FRET-based ASO-Bind-Map; format: binding, human; details: 1 μM, ASO 500 nM
Experimental: FRET-based ASO-Bind-Map. The SNCA IRE dually labeled with Cy3 and Cy5 dyes (100 nM) was folded by heating at 65° C. for 5 min in 1× Assay Buffer and slowly cooling to room temperature. BSA was added to the RNA solutions to a final concentration of 40 μg/mL followed by addition of compound. The mixtures were incubated at room temperature for 30 min. Fluorescence spectra were then acquired as a function of time (in kinetics mode) for 20 min using a Cary Eclips fluorescence spectrophotometer, with excitation and emission wavelengths of 532/10 nm and 668/5 nm, respectively. The ASO of interest was then added to a final concentration of 500 nM, and fluorescence spectra were acquired as described above.

[9] = target: RNA-7 (A bulge mutated to U or G bulge); assay: Competitive binding assay (2-AP), RNA-7
Experimental: as §1

[10] = test system: SNCA 5′ UTR; assay: Luciferase reporter assay, SNCA 5′ UTR, SH-SY5Y cells; format: cell-based, human

Structure (SMILES): N=C(N)c1ccc(Nc2ccc(-c3cc4ccc(C(=N)N)cc4[nH]3)cc2)cc1 [Synucleozid A]
- effect of closing base pair mutation on binding affinity [1]: reduced binding affinity
- competitor RNA concentration needed for recovery of 2-AP emission [2]: > 100 µM
- inhibition of luciferase expression in vitro, SNCA-5′-UTR-Luc [3]: inhibited luciferase expression in a concentration-dependent manner
- protection from RNase H cleavage, ASOs hybridized with sites other than A bulge ([4]; 1 μM): no protection from cleavage
- protection of the IRE from RNase H cleavage ([4]; 0.1, 1, and 10 μM, ASO (1-10) and ASO (40-50) overlap with the A bulge): only observed with ASOs whose binding sites overlap with the A bulge
- effect on steady-state levels of SNCA mRNA [5]: no effect
- effect on SNCA mRNA cleavage by ASO(29-39) [6]: no effect; also recorded: Protection is not observed
- effect with the control ASO [6]: no effect
- EC50 ([6]; read-out: EC50 for inhibition of SNCA mRNA cleavage by ASO(1-10)): 1000 nM
- effect on translation of luciferase fused to APP 5′ UTR [7]: no effect
- reduction of ASO-induced unfolding (FRET) [8]: only able to reduce the extent of unfolding induced by ASO(1-10) and ASO(40-50)
- Kd [9]: ~20 µM
- reduction of avidity compared to the native IRE [9]: 10 fold
- inhibition of translation, luciferase fused to SNCA 5′ UTR ([10]; 250 nM): ~10%
- inhibition of translation, luciferase fused to SNCA 5′ UTR ([10]; 1 μM): ~40%
